Measurements reported in patent US11154563B2, “Immunoproteasome inhibitors” (Principia Biopharma Inc., priority 2017, dated 2021).

How the values were obtained:
Format in all cases: biochemical
[1] = target: immunoproteasome LPM2/β1i subunit (Homo sapiens, UniProt P28065+P40306); test: Caliper-based proteasome enzymatic activity assay, LMP2; conditions: human recombinant immunoproteasome 0.3 nM, FAM-peptide substrate 1 μM, 2 h at rt
Description: A Caliper-based proteasome assay (Caliper Life Sciences, Hopkinton, Mass.) was used to measure inhibition of the immunoproteasome LMP7/B5i subunit, the immunoproteasome LPM2/β1i subunit, and the constitutive proteasome β5c unit for a compound of Formula (I). For LMP7 and β5c, serial dilutions of test compounds were incubated with either human recombinant immunoprotcasome or constitutive proteasome (0.3 nM enzyme) and a carboxyfluorescein (FAM)-labeled peptide substrate FAM-TYETFKSIMKKSPF-NH2 (1 μM) at it for 3 h. The reaction was then terminated with a buffer containing the known proteasome inhibitor carfilzomib at a concentration of 5 uM. For LMP2, serial dilutions of test compounds were incubated with human recombinant immunoproteasome proteasome (0.3 nM enzyme) and a carboxyfluorescein (FAM)-labeled peptide substrate FAM-[…]-NH2 (1 μM) at rt for 2 h. The reaction was then terminated with a buffer containing the known proteasome inhibitor ixazomib at a concentration of 6.7 uM. The reaction buffer was 20 mM Hepes pH 7.4, 0.01% bovine serum albumin, 0.015% SDS, 0.5 mM EDTA, 1%0/DMSO. The peptide cleavage reaction product was quantified on a Caliper LabChip 3000. Percent inhibition was calculated for each compound dilution and the concentration that produced 50% inhibition was calculated. This value is presented as the IC50.

[2] = target: constitutive proteasome β5c unit (Homo sapiens, UniProt P20618+P28074); test: Caliper-based proteasome enzymatic activity assay, β5c; conditions: human recombinant constitutive proteasome 0.3 nM, FAM-peptide substrate 1 μM, 3 h at rt; read-out: β5c subunit IC50
Method in brief: (§1)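 Recombinant human immunoproteasome or constitutive proteasome (0.3 nM) with 1 μM FAM-peptide in 20 mM Hepes pH 7.4, 0.015% SDS, 0.01% BSA; LMP7/β5c ran 3 h at rt and were stopped with 5 uM carfilzomib, LMP2 ran 2 h and was stopped with 6.7 uM ixazomib. Cleaved product quantified by microfluidic separation; IC50 from percent inhibition.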

[3] = target: immunoproteasome LMP7/B5i subunit (Homo sapiens, UniProt P20618+P28062); test: Caliper-based proteasome enzymatic activity assay, LMP7; conditions: human recombinant immunoproteasome 0.3 nM, FAM-peptide substrate 1 μM, 3 h at rt
Method in brief: as §1

IC50 [1] | IC50 [2] | IC50 [3] | Compound
3650 nM | > 5000 nM | 14 nM | CC(C)(C)/C=C(\C#N)C(=O)N1CCCC[C@H]1COC(=O)N[C@@H](Cc1ccccc1)B(O)O [Example 9, ((R)-1-(((((S)-1-((E)-2-cyano-4,4-dimethylpent-2-enoyl)piperidin-2-yl)methoxy)carbonyl)amino)-2-phenylethyl)boronic acid]
> 5000 nM | > 5000 nM | 39 nM | CC(C)C=C(C#N)C(=O)N1CCC[C@H]1COC(=O)N[C@@H](Cc1ccccc1)B(O)O [Example 12, ((R)-1-(((((S)-1-(2-cyano-4-methylpent-2-enoyl)pyrrolidin-2-yl)methoxy)carbonyl)amino)-2-phenylethyl)boronic acid]
4040 nM | > 5000 nM | 38 nM | CC(C)C=C(C#N)C(=O)N1CCCC[C@H]1COC(=O)N[C@@H](Cc1ccccc1)B(O)O [Example 13, ((R)-1-(((((S)-1 (2-cyano-4-methylpent-2-enoyl)piperidin-2-yl)methoxy)carbonyl)amino)-2-phenylethyl)boronic acid]
> 5000 nM | 2950 nM | 1.9 nM | CC(C)(C=C(C#N)C(=O)N1CCC[C@@H]1COC(=O)N[C@@H](Cc1ccccc1)B(O)O)N1CCN(C2COC2)CC1 [Example 17, ((R)-1-(((((R)-1-(2-cyano-4-methyl-4-(4-(oxetan-3-yl)piperazin-1-yl)pent-2-enoyl)pyrrolidin-2-yl)methoxy)carbonyl)amino)-2-phenylethyl)boronic acid]
> 5000 nM | 4540 nM | 3.6 nM | CC(C)(C=C(C#N)C(=O)N1CCC[C@@H]1COC(=O)N[C@@H](Cc1ccccc1)B(O)O)N1CCCCC1 [Example 20, ((R)-1-(((((R)-1-(2-cyano-4-methyl-4-(piperidin-1l-yl)pent-2-enoyl)pyrrolidin-2-yl)methoxy)carbonyl)amino)-2-phenylethyl)boronic acid]
4780 nM | 1940 nM | 1.4 nM | CC(C)(C=C(C#N)C(=O)N1CCC[C@@H]1COC(=O)N[C@@H](Cc1ccccc1)B(O)O)N1CCC(F)(F)CC1 [Example 21, ((R)-1-(((((R)-1-(2-cyano-4-(4,4-difluoropiperidin-1-yl)-4-methylpent-2-enoyl)pyrrolidin-2-yl)methoxy)carbonyl)amino)-2-phenylethyl)boronic acid]
> 5000 nM | > 5000 nM | 2.6 nM | CC(C)(C=C(C#N)C(=O)N1CCC[C@@H]1COC(=O)N[C@@H](Cc1ccccc1)B(O)O)N1CCOCC1 [Example 23, ((R)-1-(((((R)-1-(2-cyano-4-methyl-4-morpholinopent-2-enoyl)pyrrolidin-2-yl)methoxy)carbonyl)amino)-2-phenylethyl)boronic acid]
> 5000 nM | 2110 nM | 1.2 nM | CC(C)(C)C=C(C#N)C(=O)N1C[C@@H]2C[C@@H]2[C@@H]1COC(=O)N[C@@H](Cc1ccccc1)B(O)O [Example 26]
> 5000 nM | 3480 nM | 11 nM | CC(C)(C=C(C#N)C(=O)N1CCCC[C@@H]1COC(=O)N[C@@H](Cc1ccccc1)B(O)O)N1CCCC1 [Example 27]
> 5000 nM | 2190 nM | 1.5 nM | CC(C)(C=C(C#N)C(=O)N1CCCC[C@@H]1COC(=O)N[C@@H](Cc1ccccc1)B(O)O)N1CCC(F)(F)C1 [Example 28, ((R)-1-(((((R)-1-(2-cyano-4-(3,3-difluoropyrrolidin-1-yl)-4-methylpent-2-enoyl)piperidin-2-yl)methoxy)carbonyl)amino)-2-phenylethyl)boronic acid]
> 5000 nM | 3400 nM | 2.9 nM | CC(C)(C=C(C#N)C(=O)N1CCCC[C@@H]1COC(=O)N[C@@H](Cc1ccccc1)B(O)O)N1CCOCC1 [Example 29, ((R)-1-(((((R)-1-(2-cyano-4-methyl-4-morpholinopent-2-enoyl)piperidin-2-yl)methoxy)carbonyl)amino)-2-phenylethyl)boronic acid]
 | 2730 nM | 2.3 nM | CC(C)(C)/C=C(\C#N)C(=O)N1CCNC[C@@H]1COC(=O)N[C@@H](Cc1ccccc1)B(O)O [Example 128, ((R)-1-(((((R)-1-((E)-2-cyano-4,4-dimethylpent-2-enoyl)piperazin-2-yl)methoxy)carbonyl)amino)-2-phenylethyl)boronic acid]
 | 1940 nM | 2 nM | CC(C)(C=C(C#N)C(=O)N1CCCC[C@]1(C)COC(=O)N[C@@H](Cc1ccccc1)B(O)O)N1CCC(F)(F)C1 [Example 129, ((R)-1-(((((R)-1-(2-cyano-4-(3,3-difluoropyrrolidin-1-yl)-4-methylpent-2-enoyl)-2-methylpiperidin-2-yl)methoxy)carbonyl)amino)-2-phenylethyl)boronic acid]

More lines, now with the values behind:

Compound | IC50 [1] | IC50 [2] | IC50 [3]
C=CC(=O)N1CCCC[C@@H]1COC(=O)N[C@@H](Cc1ccccc1)B(O)O [Example 8, ((R)-1-(((((R)-1-acryloylpiperidin-2-yl)methoxy)carbonyl)amino)-2-phenylethyl)boronic acid] | > 5000 nM | > 5000 nM | > 5000 nM
C=CC(=O)N1CCCC[C@H]1COC(=O)N[C@@H](Cc1ccccc1)B(O)O [Example 11, ((R)-1-(((((S)-1-acryloylpiperidin-2-yl)methoxy)carbonyl)amino)-2-phenylethyl)boronic acid] | 3240 nM | > 5000 nM | 957 nM
C=CC(=O)N1CCC[C@@H]1COC(=O)N[C@@H](Cc1ccccc1)B(O)O [Example 14, ((R)-1-(((((R)-1-acryloylpyrrolidin-2-yl)methoxy)carbonyl)amino)-2-phenylethyl)boronic acid] | > 5000 nM | 4850 nM | 123 nM
CC(C)C=C(C#N)C(=O)N1CCC[C@@H]1COC(=O)N[C@@H](Cc1coc2ccccc12)B(O)O [Example 16, ((R)-2-(benzofuran-3-yl)-1-(((((R)-1-(2-cyano-4-methylpent-2-enoyl)pyrrolidin-2-yl)methoxy)carbonyl)amino)ethyl)boronic acid] | > 5000 nM | 444 nM | 2.5 nM
Cc1ccc(C[C@H](NC(=O)OC[C@H]2CCCN2C(=O)C(C#N)=CC(C)(C)C)B(O)O)cc1 [Example 18, ((R)-1-(((((R)-1-(2-cyano-4,4-dimethylpent-2-enoyl)pyrrolidin-2-yl)methoxy)carbonyl)amino)-2-(p-tolyl)ethyl)boronic acid] | > 5000 nM | 1540 nM | 2 nM
C=CC(=O)N1CCC[C@@H]1COC(=O)N[C@@H](Cc1ccc(C)cc1)B(O)O [Example 19, ((R)-1-(((((R)-1-acryloylpyrrolidin-2-yl)methoxy)carbonyl)amino)-2-(p-tolyl)ethyl)boronic acid] | > 5000 nM | 3260 nM | 60 nM
CC(C)(C)C=C(C#N)C(=O)N1C[C@H]2C[C@H]2[C@H]1COC(=O)N[C@@H](Cc1ccccc1)B(O)O [Example 22, ((R)-1-(((((1R,2S,5S)-3-(2-cyano-4,4-dimethylpent-2-enoyl)-3-azabicyclo[3.1.0]hexan-2-yl)methoxy)carbonyl)amino)-2-phenylethyl)boronic acid] | > 5000 nM | > 5000 nM | 1.8 nM
Cc1ccc(C[C@H](NC(=O)OC[C@H]2CCCCN2C(=O)C(C#N)=CC(C)(C)C)B(O)O)cc1 [Example 24, ((R)-1-(((((R)-1-(2-cyano-4,4-dimethylpent-2-enoyl)piperidin-2-yl)methoxy)carbonyl)amino)-2-(p-tolyl)ethyl)boronic acid] | > 5000 nM | 1390 nM | 3.7 nM
CC(C)(C)C=C(C#N)C(=O)N1CCCC[C@@H]1COC(=O)N[C@@H](Cc1coc2ccccc12)B(O)O [Example 25, ((R)-2-(benzofuran-3-yl)-1-(((((R)-1-(2-cyano-4,4-dimethylpent-2-enoyl)piperidin-2-yl)methoxy)carbonyl)amino)ethyl)boronic acid] | > 5000 nM | 172 nM | 0.6 nM
CC(C)(C=C(C#N)C(=O)N1CCCC[C@@H]1COC(=O)N[C@@H](Cc1ccc(F)cc1)B(O)O)N1CCN(C2COC2)CC1 [Example 127, ((R)-1-(((((R)-1-(2-cyano-4-methyl-4-(4-(oxetan-3-yl)piperazin-1-yl)pent-2-enoyl)piperidin-2-yl)methoxy)carbonyl)amino)-2-(4-fluorophenyl)ethyl)boronic acid] |  | 900 nM | 5 nM
